{"source": "patent US12371464B2", "about": "“Polypeptides and uses thereof” (MEDIMMUNE LIMITED, priority 2020, dated 2025)", "assay": "Thioflavin T fibrillation assay", "format": "physicochemical", "details": "for Time taken to detect increase in fluorescence intensity: 1 mg/mL in 25 mM sodium acetate buffer pH 4.0, 37° C., 6 days, orbital shaking, >144 h = no increase; for fibril-forming tendency on conjugating pramlintide to a lipid: as seen in Table 7", "source_text": "Peptide aggregation that form fibrils is an indication of physical instability. Fibril formation in solution poses a significant risk for the stability of injectable peptide drug products. Thioflavin T (ThT) fibrillation assay is a useful tool to assess the aggregation kinetics of a peptide or protein under accelerated and stressed conditions that can be used to forecast the long-term viability of a compound in solution. ThT can selectively bind amyloid fibrils and the resultant complex emits strong fluorescence signal at 482 nm when excited at 450 nm (Anal Biochem. 1989 March; 177 (2): 244-9). Monitoring of the change in fluorescence signal is an established method to study the fibril forming potential of peptides and proteins. ThT (purchased from Sigma Aldrich) stock solution is prepared by dissolving the ThT powder in Milli-Q water and filtered to obtain a 0.25 mM solution. The concentration of the solution is measured at 412 nm using an extinction coefficient of 36 mM-1 cm-1. Test peptides were dissolved at 1 mg/mL in 25 mM sodium acetate buffer pH 4.0. 100 μL aliquot of peptide solution and 5 μL aliquot of ThT solution were placed in a clear bottom black fluorescence 96-well plate. 5 replicates of each test samples were placed in the same row of the plate. Buffer was placed in control wells for baseline correction. All empty wells were filled with water to prevent evaporation. The plate was sealed with aluminium seal and placed in fluorescence plate reader and incubated for 6 days at 37° C. with intermittent orbital shaking at 500 to 750 rpm. The fluorescence intensity was measured every 30 min using excitation at 444 nm and emission at 480 nm. The fibril forming potential of the test peptides was determined by measuring the average time taken to detect an increase in baseline corrected fluorescence intensity.", "note": "Numbered stars: 1 amine (or outer) side, 2 acyl side, 3 side chain; on linkers, the order of the positions; unused ones are H or OH. Bridge positions count the residues as written; N and C are the ends. Square brackets hold non-standard residues; d marks the D form. Side chains are listed from the residue outwards. Peptide text beside a SMILES is read from it. * marks the point of attachment. C18 diacid = O=C(O)CCCCCCCCCCCCCCCCC(=O)*; γGlu = O=C(O)[C@H](CCC(=O)[*:2])N[*:1]; Dab = NCC[C@H](N)C(=O)O; AEEA = NCCOCCOCC(=O)O; Aib = CC(C)(N)C(=O)O", "data": [{"smiles": "CC[C@H](C)[C@H](NC(=O)[C@@H]1CCCN1C(=O)CNC(=O)[C@H](Cc1ccccc1)NC(=O)[C@H](CC(N)=O)NC(=O)[C@H](CC(N)=O)NC(=O)[C@H](CO)NC(=O)[C@H](CO)NC(=O)[C@H](Cc1c[nH]cn1)NC(=O)[C@@H](NC(=O)[C@H](CC(C)C)NC(=O)[C@H](Cc1ccccc1)NC(=O)[C@H](CC(N)=O)NC(=O)[C@H](C)NC(=O)[C@H](CC(C)C)NC(=O)[C@H](CCCNC(=N)N)NC(=O)[C@H](CCC(N)=O)NC(=O)[C@@H](NC(=O)[C@H](C)NC(=O)[C@@H]1CSSC[C@H](NC(=O)[C@H](CCCCN)NC(=O)CC[C@H](NC(=O)CCCCCCCCCCCCCCCCC(=O)O)C(=O)O)C(=O)N[C@@H](CC(N)=O)C(=O)N[C@@H]([C@@H](C)O)C(=O)N[C@@H](C)C(=O)N[C@@H]([C@@H](C)O)C(=O)N1)[C@@H](C)O)C(C)C)C(=O)N[C@@H](CC(C)C)C(=O)N1CCC[C@H]1C(=O)N1CCC[C@H]1C(=O)N[C@H](C(=O)N[C@@H](CC(N)=O)C(=O)N[C@H](C(=O)NCC(=O)N[C@@H](CO)C(=O)N[C@@H](CC(N)=O)C(=O)N[C@H](C(=O)N[C@@H](Cc1ccc(O)cc1)C(N)=O)[C@@H](C)O)C(C)C)[C@@H](C)O", "note": "[Peptide 3] ({C18 diacid-γGlu}-KCNTATCATQRLANFLVHSSNNFGPILPPTNVGSNTY-NH2; disulfide 2-7)", "values": [{"measurement": "Time taken to detect increase in fluorescence intensity", "result": "<5", "unit": "h"}, {"measurement": "fibril-forming tendency on conjugating pramlintide to a lipid", "result": "increases the fibril-forming tendency"}]}, {"smiles": "CC[C@H](C)[C@H](NC(=O)[C@@H]1CCCN1C(=O)CNC(=O)[C@H](Cc1ccccc1)NC(=O)[C@H](CC(N)=O)NC(=O)[C@H](CC(N)=O)NC(=O)[C@H](CO)NC(=O)[C@H](CO)NC(=O)[C@H](Cc1c[nH]cn1)NC(=O)[C@@H](NC(=O)[C@H](CC(C)C)NC(=O)[C@H](Cc1ccccc1)NC(=O)[C@H](CC(N)=O)NC(=O)[C@H](C)NC(=O)[C@H](CC(C)C)NC(=O)[C@H](CCCNC(=N)N)NC(=O)[C@H](CCC(N)=O)NC(=O)[C@@H](NC(=O)[C@H](C)NC(=O)[C@@H]1CSSC[C@H](NC(=O)[C@H](CCCCN)NC(=O)CNC(=O)CNC(=O)CNC(=O)CC[C@H](NC(=O)CC[C@H](NC(=O)CCCCCCCCCCCCCCCCC(=O)O)C(=O)O)C(=O)O)C(=O)N[C@@H](CC(N)=O)C(=O)N[C@@H]([C@@H](C)O)C(=O)N[C@@H](C)C(=O)N[C@@H]([C@@H](C)O)C(=O)N1)[C@@H](C)O)C(C)C)C(=O)N[C@@H](CC(C)C)C(=O)N1CCC[C@H]1C(=O)N1CCC[C@H]1C(=O)N[C@H](C(=O)N[C@@H](CC(N)=O)C(=O)N[C@H](C(=O)NCC(=O)N[C@@H](CO)C(=O)N[C@@H](CC(N)=O)C(=O)N[C@H](C(=O)N[C@@H](Cc1ccc(O)cc1)C(N)=O)[C@@H](C)O)C(C)C)[C@@H](C)O", "note": "[Peptide 4] ({C18 diacid-γGlu-γGlu}-GGGKCNTATCATQRLANFLVHSSNNFGPILPPTNVGSNTY-NH2; disulfide 5-10)", "values": [{"measurement": "Time taken to detect increase in fluorescence intensity", "result": "<5", "unit": "h"}, {"measurement": "fibril-forming tendency on conjugating pramlintide to a lipid", "result": "increases the fibril-forming tendency"}]}, {"smiles": "CC[C@H](C)[C@H](NC(=O)[C@@H]1CCCN1C(=O)CNC(=O)[C@H](Cc1ccccc1)NC(=O)[C@H](CC(N)=O)NC(=O)[C@H](CC(N)=O)NC(=O)[C@H](CO)NC(=O)[C@H](CO)NC(=O)[C@H](Cc1c[nH]cn1)NC(=O)[C@@H](NC(=O)[C@H](CC(C)C)NC(=O)[C@H](Cc1ccccc1)NC(=O)[C@H](CC(N)=O)NC(=O)[C@H](C)NC(=O)[C@H](CC(C)C)NC(=O)[C@H](CCCNC(=N)N)NC(=O)[C@H](CCC(N)=O)NC(=O)[C@@H](NC(=O)[C@H](C)NC(=O)[C@@H]1CSSC[C@H](NC(=O)[C@@H](N)CCCCNC(=O)CC[C@H](NC(=O)CC[C@H](NC(=O)CCCCCCCCCCCCCCCCC(=O)O)C(=O)O)C(=O)O)C(=O)N[C@@H](CC(N)=O)C(=O)N[C@@H]([C@@H](C)O)C(=O)N[C@@H](C)C(=O)N[C@@H]([C@@H](C)O)C(=O)N1)[C@@H](C)O)C(C)C)C(=O)N[C@@H](CC(C)C)C(=O)N1CCC[C@H]1C(=O)N1CCC[C@H]1C(=O)N[C@H](C(=O)N[C@@H](CC(N)=O)C(=O)N[C@H](C(=O)NCC(=O)N[C@@H](CO)C(=O)N[C@@H](CC(N)=O)C(=O)N[C@H](C(=O)N[C@@H](Cc1ccc(O)cc1)C(N)=O)[C@@H](C)O)C(C)C)[C@@H](C)O", "note": "[Peptide 5] (H-K([γGlu-γGlu-C18 diacid])CNTATCATQRLANFLVHSSNNFGPILPPTNVGSNTY-NH2; disulfide 2-7; N-terminus assumed)", "values": [{"measurement": "Time taken to detect increase in fluorescence intensity", "result": 7, "unit": "h"}, {"measurement": "fibril-forming tendency on conjugating pramlintide to a lipid", "result": "increases the fibril-forming tendency"}]}, {"smiles": "CC[C@H](C)[C@H](NC(=O)[C@@H]1CCCN1C(=O)CNC(=O)[C@H](Cc1ccccc1)NC(=O)[C@H](CC(N)=O)NC(=O)[C@H](CC(N)=O)NC(=O)[C@H](CO)NC(=O)[C@H](CO)NC(=O)[C@H](Cc1c[nH]cn1)NC(=O)[C@@H](NC(=O)[C@H](CC(C)C)NC(=O)[C@H](Cc1ccccc1)NC(=O)[C@H](CC(N)=O)NC(=O)[C@H](C)NC(=O)[C@H](CC(C)C)NC(=O)[C@H](CCCNC(=N)N)NC(=O)[C@H](CCC(N)=O)NC(=O)[C@@H](NC(=O)[C@H](C)NC(=O)[C@@H]1CSSC[C@H](NC(=O)[C@@H](N)CCCCNC(=O)COCCOCCNC(=O)COCCOCCNC(=O)CC[C@H](NC(=O)CCCCCCCCCCCCCCCCC(=O)O)C(=O)O)C(=O)N[C@@H](CC(N)=O)C(=O)N[C@@H]([C@@H](C)O)C(=O)N[C@@H](C)C(=O)N[C@@H]([C@@H](C)O)C(=O)N1)[C@@H](C)O)C(C)C)C(=O)N[C@@H](CC(C)C)C(=O)N1CCC[C@H]1C(=O)N1CCC[C@H]1C(=O)N[C@H](C(=O)N[C@@H](CC(N)=O)C(=O)N[C@H](C(=O)NCC(=O)N[C@@H](CO)C(=O)N[C@@H](CC(N)=O)C(=O)N[C@H](C(=O)N[C@@H](Cc1ccc(O)cc1)C(N)=O)[C@@H](C)O)C(C)C)[C@@H](C)O", "note": "[Peptide 6] (H-K([AEEA-AEEA-γGlu-C18 diacid])CNTATCATQRLANFLVHSSNNFGPILPPTNVGSNTY-NH2; disulfide 2-7; N-terminus assumed)", "values": [{"measurement": "Time taken to detect increase in fluorescence intensity", "result": 15, "unit": "h"}, {"measurement": "fibril-forming tendency on conjugating pramlintide to a lipid", "result": "increases the fibril-forming tendency"}]}, {"smiles": "CC[C@H](C)[C@H](NC(=O)[C@H](C)NC(=O)[C@@H]1CCCN1C(=O)[C@H](Cc1ccccc1)NC(=O)[C@H](CC(N)=O)NC(=O)[C@H](CCN)NC(=O)[C@H](CO)NC(=O)[C@H](CO)NC(=O)[C@H](Cc1c[nH]cn1)NC(=O)[C@@H](NC(=O)[C@H](CC(C)C)NC(=O)[C@H](Cc1ccccc1)NC(=O)[C@H](CC(N)=O)NC(=O)[C@H](C)NC(=O)[C@H](CC(C)C)NC(=O)[C@H](CCCNC(=N)N)NC(=O)[C@H](CCC(N)=O)NC(=O)[C@@H](NC(=O)[C@H](C)NC(=O)[C@@H]1CSSC[C@H](NC(=O)[C@@H](N)CCCCNC(=O)CC[C@H](NC(=O)CC[C@H](NC(=O)CCCCCCCCCCCCCCCCC(=O)O)C(=O)O)C(=O)O)C(=O)N[C@@H](CC(N)=O)C(=O)N[C@@H]([C@@H](C)O)C(=O)N[C@@H](C)C(=O)N[C@@H]([C@@H](C)O)C(=O)N1)[C@@H](C)O)C(C)C)C(=O)N[C@@H](CC(C)C)C(=O)N[C@@H](CO)C(=O)N1CCC[C@H]1C(=O)N[C@H](C(=O)N[C@@H](CC(N)=O)C(=O)N[C@H](C(=O)NCC(=O)N[C@@H](CO)C(=O)N[C@@H](CC(N)=O)C(=O)N[C@H](C(=O)N[C@@H](Cc1ccc(O)cc1)C(N)=O)[C@@H](C)O)C(C)C)[C@@H](C)O", "note": "[Peptide 8, K(γE-γE-C18diacid)[CNTATC]ATQRLANFLVHSS(Dab)NFPAILSPTNVGSNTY-amide] (H-K([γGlu-γGlu-C18 diacid])CNTATCATQRLANFLVHSS[Dab]NFPAILSPTNVGSNTY-NH2; disulfide 2-7; N-terminus assumed)", "values": [{"measurement": "Time taken to detect increase in fluorescence intensity", "result": 7, "unit": "h"}]}, {"smiles": "CC[C@H](C)[C@H](NC(=O)[C@H](C)NC(=O)[C@@H]1CCCN1C(=O)[C@H](Cc1ccccc1)NC(=O)[C@H](CC(N)=O)NC(=O)C(C)(C)NC(=O)[C@H](CO)NC(=O)[C@H](CO)NC(=O)[C@H](Cc1c[nH]cn1)NC(=O)[C@@H](NC(=O)[C@H](CC(C)C)NC(=O)[C@H](Cc1ccccc1)NC(=O)[C@H](CC(N)=O)NC(=O)[C@H](C)NC(=O)[C@H](CC(C)C)NC(=O)[C@H](CCCNC(=N)N)NC(=O)[C@H](CCC(N)=O)NC(=O)[C@@H](NC(=O)[C@H](C)NC(=O)[C@@H]1CSSC[C@H](NC(=O)[C@@H](N)CCCCNC(=O)CC[C@H](NC(=O)CC[C@H](NC(=O)CCCCCCCCCCCCCCCCC(=O)O)C(=O)O)C(=O)O)C(=O)N[C@@H](CC(N)=O)C(=O)N[C@@H]([C@@H](C)O)C(=O)N[C@@H](C)C(=O)N[C@@H]([C@@H](C)O)C(=O)N1)[C@@H](C)O)C(C)C)C(=O)N[C@@H](CC(C)C)C(=O)N[C@@H](CO)C(=O)N1CCC[C@H]1C(=O)N[C@H](C(=O)N[C@@H](CC(N)=O)C(=O)N[C@H](C(=O)NCC(=O)N[C@@H](CO)C(=O)N[C@@H](CC(N)=O)C(=O)N[C@H](C(=O)N[C@@H](Cc1ccc(O)cc1)C(N)=O)[C@@H](C)O)C(C)C)[C@@H](C)O", "note": "[Peptide 9, K(γE-γE-C18diacid)[CNTATC]ATQRLANFLVHSS(Aib)NFPAILSPTNVGSNTY-amide] (H-K([γGlu-γGlu-C18 diacid])CNTATCATQRLANFLVHSS[Aib]NFPAILSPTNVGSNTY-NH2; disulfide 2-7; N-terminus assumed)", "values": [{"measurement": "Time taken to detect increase in fluorescence intensity", "result": 7, "unit": "h"}]}]}
